How the values were obtained:
[1] = system: Telomere G1 (Telomere G4) (DNA, G4) TAGGGTTAGGGTTAGGGTTAGGG; assay: CD melting; conditions: 100 mM KCl; 50 mM Tris-HCl pH 7.4; 4.5 μM compound, 1.5 μM nucleic acid
[2] = system: c-kit (DNA, G4) AGGGAGGGCGCTGGGAGGAGGG; assay: CD spectral change; conditions: 100 mM KCl; 50 mM Tris-HCl pH 7.4, 25 °C; 1.5 μM DNA, up to 4.5 μM compound
[3] = system: Telomere G1 (Telomere G4) (DNA, G4) TAGGGTTAGGGTTAGGGTTAGGG; assay: UV-Vis titration, Scatchard; conditions: 100 mM KCl; 50 mM Tris-HCl pH 7.4, 25 °C
[4] = system: G1-r23nt (RNA, G4) UAGGGUUAGGGUUAGGGUUAGGG; assay: CD melting; conditions: 5 mM KCl; 50 mM Tris-HCl pH 7.4; 4.5 μM compound, 1.5 μM nucleic acid
[5] = system: Telomere G1 (Telomere G4) (DNA, G4) TAGGGTTAGGGTTAGGGTTAGGG; assay: ITC; conditions: 50 mM potassium phosphate (K+), 50 mM KH2PO4-K2HPO4 pH 7.0, 25 °C; for binding: n.d. (not detected), titrant up to 100 μM
[6] = system: ds-oligo (DNA, duplex) GGGAGGTTTCGC/GCGAAACCTCCC; assay: UV-Vis titration, Scatchard; conditions: 100 mM KCl; 50 mM Tris-HCl pH 7.4, 25 °C
[7] = system: G1-r12nt (RNA, G4) UAGGGUUAGGGU; assay: CD melting; conditions: 100 mM KCl; 50 mM KH2PO4-K2HPO4 pH 7.0; 4.5 μM compound, 1.5 μM nucleic acid
[8] = system: c-myc AP sites (DNA, G4, abasic (d-spacer) at 7 and 16) TGAGGGNGGGGAGGGNGGGGAA; assay: ITC; conditions: 50 mM potassium phosphate (K+); 50 mM KH2PO4-K2HPO4 pH 7.0, 25 °C
[9] = system: G1-r12nt (RNA, G4) UAGGGUUAGGGU; assay: ITC; conditions: 50 mM potassium phosphate (K+); 50 mM KH2PO4-K2HPO4 pH 7.0, 25 °C
[10] = system: G1-r23nt (RNA, G4) UAGGGUUAGGGUUAGGGUUAGGG; assay: ITC; conditions: 50 mM potassium phosphate (K+); 50 mM KH2PO4-K2HPO4 pH 7.0, 25 °C
[11] = system: ds-oligo (DNA, duplex) GGGAGGTTTCGC/GCGAAACCTCCC; assay: ITC; conditions: 50 mM potassium phosphate (K+); 50 mM KH2PO4-K2HPO4 pH 7.0, 25 °C; undetectable

Row | ΔTm [1] | binding [2] | Ka [3] | ΔTm [4] | Ka [5] | Ka [6] | ΔTm [7] | Ka [8] | binding [9] | Ka [10] | binding [11] | binding [5] | SMILES
1 | 5.1 ± 1.1 °C | yes | 9.5 ± 0.9 × 10^5 M^-1 | 19.9 ± 0.1 °C | 9.5 ± 0.6 × 10^5 M^-1 | 3.9 ± 0.1 × 10^5 M^-1 | 6.1 ± 0.4 °C | 2.9 ± 0.2 × 10^5 M^-1 | – | – | – | – | CN(C)CCCN1C(=O)c2ccc3c4c(ccc(c24)C1=O)C(=O)N(CCCN(C)C)C3=O
2 | < 0.5 °C | – | – | 10.3 ± 0.3 °C | – | – | 2.1 ± 0.9 °C | 2.2 ± 0.3 × 10^5 M^-1 | yes | 19.0 ± 2.2 × 10^5 M^-1 | no | no | CN(CCCN1C(=O)c2ccc3c4c(ccc(c24)C1=O)C(=O)N(CCCN(C)C[C@H]1O[C@@H]2O[C@H]4[C@H](O)[C@@H](O)[C@@H](O[C@H]5[C@H](O)[C@@H](O)[C@@H](O[C@H]6[C@H](O)[C@@H](O)[C@@H](O[C@H]7[C@H](O)[C@@H](O)[C@@H](O[C@H]8[C@H](O)[C@@H](O)[C@@H](O[C@H]9[C@H](O)[C@@H](O)[C@@H](O[C@H]1[C@H](O)[C@H]2O)O[C@@H]9CO)O[C@@H]8CO)O[C@@H]7CO)O[C@@H]6CO)O[C@@H]5CO)O[C@@H]4CO)C3=O)C[C@H]1O[C@@H]2O[C@H]3[C@H](O)[C@@H](O)[C@@H](O[C@H]4[C@H](O)[C@@H](O)[C@@H](O[C@H]5[C@H](O)[C@@H](O)[C@@H](O[C@H]6[C@H](O)[C@@H](O)[C@@H](O[C@H]7[C@H](O)[C@@H](O)[C@@H](O[C@H]8[C@H](O)[C@@H](O)[C@@H](O[C@H]1[C@H](O)[C@H]2O)O[C@@H]8CO)O[C@@H]7CO)O[C@@H]6CO)O[C@@H]5CO)O[C@@H]4CO)O[C@@H]3CO
3 | < 0.5 °C | – | – | 10.6 ± 0.6 °C | – | – | < 0.5 °C | 2.0 ± 0.8 × 10^5 M^-1 | yes | 12.3 ± 2.2 × 10^5 M^-1 | no | no | O=C(CN1C(=O)c2ccc3c4c(ccc(c24)C1=O)C(=O)N(CC(=O)NCCNC[C@H]1O[C@@H]2O[C@H]4[C@H](O)[C@@H](O)[C@@H](O[C@H]5[C@H](O)[C@@H](O)[C@@H](O[C@H]6[C@H](O)[C@@H](O)[C@@H](O[C@H]7[C@H](O)[C@@H](O)[C@@H](O[C@H]8[C@H](O)[C@@H](O)[C@@H](O[C@H]9[C@H](O)[C@@H](O)[C@@H](O[C@H]1[C@H](O)[C@H]2O)O[C@@H]9CO)O[C@@H]8CO)O[C@@H]7CO)O[C@@H]6CO)O[C@@H]5CO)O[C@@H]4CO)C3=O)NCCNC[C@H]1O[C@@H]2O[C@H]3[C@H](O)[C@@H](O)[C@@H](O[C@H]4[C@H](O)[C@@H](O)[C@@H](O[C@H]5[C@H](O)[C@@H](O)[C@@H](O[C@H]6[C@H](O)[C@@H](O)[C@@H](O[C@H]7[C@H](O)[C@@H](O)[C@@H](O[C@H]8[C@H](O)[C@@H](O)[C@@H](O[C@H]1[C@H](O)[C@H]2O)O[C@@H]8CO)O[C@@H]7CO)O[C@@H]6CO)O[C@@H]5CO)O[C@@H]4CO)O[C@@H]3CO
